Where “and” joins values, the source holds several entries; their conditions need not be identical. Equal values may be shown once. Where a SMILES comes first, the peptide text is derived from it. Where no end group is shown, it is not given here. [ ]: non-standard residue; d: D form. βAla = NCCC(=O)O
Assays:
[1] = tested on: C. difficile ATCC 9689; format: cell-based, Clostridium difficile
[2] = tested on: C. difficile ATCC 9689; assay: Bacterial mass in wells of PM panels (OD 750 nm); format: cell-based, Clostridium difficile; settings: OD difference with vs without C. difficile, 72 h
[3] = molecular target: T1, Clostridium difficile Toxin B (Clostridioides difficile, UniProt P18177); assay: Toxin B inactivation, CHO-k1 microwell dye reduction assay; format: cell-based; settings: for Reduction of measured toxin B: at all tested concentrations, toxin B at high level
T1 construct: purchased List Biological Laboratory (Listlab, Campbell, Calif., USA)

[4] = molecular target: Clostridium difficile Toxin B (Clostridium difficile) (UniProt P18177)
[5] = tested on: crude toxin preparation from E. coli O157; format: cell-based, Escherichia coli O157
[6] = tested on: crude toxin preparation from B. cerus; format: cell-based, Bacillus cereus
[7] = tested on: crude toxin preparation from C. perfringens; format: cell-based
[8] = tested on: crude toxin preparation from C. sordellii; format: cell-based
[9] = molecular target: Shiga toxin 1 (UniProt P08026+P69178)
[10] = molecular target: Shiga toxin 2 (Escherichia phage 933W, UniProt P09385+P09386)
[11] = nitrogen source (PM03/06/07/08)
[12] = phosphorus/sulfur source panel PM04
[13] = at the lowest concentration of 0.03 μM, toxin B 1.2-100 ng/ml

T1 sequence (P18177 whole entry): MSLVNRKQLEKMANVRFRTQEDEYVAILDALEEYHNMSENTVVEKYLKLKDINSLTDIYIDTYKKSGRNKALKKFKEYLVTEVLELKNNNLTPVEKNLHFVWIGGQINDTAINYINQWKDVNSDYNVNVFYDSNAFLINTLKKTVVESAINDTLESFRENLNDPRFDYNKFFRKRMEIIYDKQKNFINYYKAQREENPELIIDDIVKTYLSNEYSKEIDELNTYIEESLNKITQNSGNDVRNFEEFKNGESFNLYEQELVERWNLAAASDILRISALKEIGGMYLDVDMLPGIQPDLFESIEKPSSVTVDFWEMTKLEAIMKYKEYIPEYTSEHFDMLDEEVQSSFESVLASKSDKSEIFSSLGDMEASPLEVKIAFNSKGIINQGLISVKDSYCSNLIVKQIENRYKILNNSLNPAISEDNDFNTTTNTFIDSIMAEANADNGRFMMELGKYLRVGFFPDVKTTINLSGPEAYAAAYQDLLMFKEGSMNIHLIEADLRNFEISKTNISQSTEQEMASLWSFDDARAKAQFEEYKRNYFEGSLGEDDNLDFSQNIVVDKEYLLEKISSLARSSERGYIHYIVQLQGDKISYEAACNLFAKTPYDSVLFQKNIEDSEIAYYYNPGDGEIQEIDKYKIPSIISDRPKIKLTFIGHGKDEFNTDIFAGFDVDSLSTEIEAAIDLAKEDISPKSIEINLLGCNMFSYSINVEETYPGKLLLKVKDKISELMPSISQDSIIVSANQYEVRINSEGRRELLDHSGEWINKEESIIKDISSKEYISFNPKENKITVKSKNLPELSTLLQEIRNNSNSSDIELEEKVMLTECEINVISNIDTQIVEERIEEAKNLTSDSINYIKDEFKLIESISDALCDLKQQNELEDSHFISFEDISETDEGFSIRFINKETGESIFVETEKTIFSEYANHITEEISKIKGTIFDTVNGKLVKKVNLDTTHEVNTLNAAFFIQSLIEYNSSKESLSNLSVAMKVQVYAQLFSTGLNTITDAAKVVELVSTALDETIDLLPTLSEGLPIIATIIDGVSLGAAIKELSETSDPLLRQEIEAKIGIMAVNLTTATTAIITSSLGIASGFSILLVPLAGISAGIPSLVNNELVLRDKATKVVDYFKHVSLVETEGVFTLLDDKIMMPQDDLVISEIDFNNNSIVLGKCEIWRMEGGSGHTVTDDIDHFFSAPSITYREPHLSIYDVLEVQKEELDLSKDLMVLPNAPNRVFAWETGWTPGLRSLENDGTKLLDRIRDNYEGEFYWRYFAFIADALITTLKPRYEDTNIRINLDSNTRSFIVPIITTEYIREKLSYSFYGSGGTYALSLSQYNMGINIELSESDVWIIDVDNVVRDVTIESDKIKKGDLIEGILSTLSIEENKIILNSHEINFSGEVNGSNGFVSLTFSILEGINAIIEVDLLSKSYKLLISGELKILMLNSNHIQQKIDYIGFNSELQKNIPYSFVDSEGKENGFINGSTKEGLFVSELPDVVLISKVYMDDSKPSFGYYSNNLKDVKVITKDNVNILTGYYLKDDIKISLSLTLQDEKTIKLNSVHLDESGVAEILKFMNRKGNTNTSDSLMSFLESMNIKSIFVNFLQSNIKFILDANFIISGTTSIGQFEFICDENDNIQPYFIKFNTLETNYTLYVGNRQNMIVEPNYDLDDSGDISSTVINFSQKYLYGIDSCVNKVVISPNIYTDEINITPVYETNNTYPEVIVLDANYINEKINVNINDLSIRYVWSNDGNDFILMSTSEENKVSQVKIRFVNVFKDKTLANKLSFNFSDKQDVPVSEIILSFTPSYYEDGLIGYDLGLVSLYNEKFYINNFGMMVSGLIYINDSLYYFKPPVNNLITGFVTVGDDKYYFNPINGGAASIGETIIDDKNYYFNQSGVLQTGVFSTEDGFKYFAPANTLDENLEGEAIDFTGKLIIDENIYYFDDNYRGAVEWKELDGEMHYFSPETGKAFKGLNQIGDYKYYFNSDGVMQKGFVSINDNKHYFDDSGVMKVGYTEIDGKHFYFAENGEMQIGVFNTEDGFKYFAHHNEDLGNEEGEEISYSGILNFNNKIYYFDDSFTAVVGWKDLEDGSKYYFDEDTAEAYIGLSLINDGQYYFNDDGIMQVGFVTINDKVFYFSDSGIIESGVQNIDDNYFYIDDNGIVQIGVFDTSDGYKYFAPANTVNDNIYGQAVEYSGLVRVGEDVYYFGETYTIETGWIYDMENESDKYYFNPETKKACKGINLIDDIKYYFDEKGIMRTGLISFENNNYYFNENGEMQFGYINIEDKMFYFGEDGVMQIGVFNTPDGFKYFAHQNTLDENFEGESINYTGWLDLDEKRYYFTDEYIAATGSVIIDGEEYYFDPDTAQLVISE
Shiga toxin 1, sequence (P08026 23-315 limits assumed): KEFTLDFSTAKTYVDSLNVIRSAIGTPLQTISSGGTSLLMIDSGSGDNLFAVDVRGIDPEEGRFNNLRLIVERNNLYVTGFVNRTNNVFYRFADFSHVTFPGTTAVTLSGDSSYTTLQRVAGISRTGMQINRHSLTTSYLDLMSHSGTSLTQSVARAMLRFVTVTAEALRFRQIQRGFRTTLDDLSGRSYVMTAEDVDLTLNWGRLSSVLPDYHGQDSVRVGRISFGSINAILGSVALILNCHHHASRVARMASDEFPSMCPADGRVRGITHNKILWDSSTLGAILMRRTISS
Shiga toxin 1, sequence (P69178 21-89 limits assumed): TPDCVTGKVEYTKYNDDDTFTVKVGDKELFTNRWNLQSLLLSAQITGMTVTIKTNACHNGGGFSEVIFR
Shiga toxin 2, sequence (P09385 23-319 limits assumed): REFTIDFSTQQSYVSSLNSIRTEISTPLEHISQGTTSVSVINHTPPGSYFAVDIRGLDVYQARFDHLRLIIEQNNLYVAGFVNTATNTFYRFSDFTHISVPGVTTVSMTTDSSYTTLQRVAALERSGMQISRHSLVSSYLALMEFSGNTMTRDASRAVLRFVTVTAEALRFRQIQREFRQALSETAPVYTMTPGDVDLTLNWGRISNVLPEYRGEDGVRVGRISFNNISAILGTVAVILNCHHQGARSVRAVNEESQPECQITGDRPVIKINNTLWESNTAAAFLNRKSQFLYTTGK
Shiga toxin 2, sequence (P09386 20-89 limits assumed): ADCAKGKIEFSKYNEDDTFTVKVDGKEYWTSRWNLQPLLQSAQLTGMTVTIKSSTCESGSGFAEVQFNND

CCC(C)C(NC(=O)C(N)CC(C)C)C(=O)O (stereo not drawn) [Leu-Ile] (H-Leu-Ile-OH; configuration not given here)
Effect on toxin production (in words) [1]: toxin production inhibitor | Toxin [1]: <0.122 ng/mL | C. difficile Mass [2, 11]: 0.0523 OD (750 nm)

CC(C)CC(N)C(=O)NC(CC(C)C)C(=O)NC(CC(C)C)C(=O)O (stereo not drawn) [Leu-Leu-Leu] (H-Leu-Leu-Leu-OH; configuration not given here)
Effect on toxin production (in words) [1]: toxin production inhibitor | Toxin [1]: <0.122 ng/mL | C. difficile Mass [2, 11]: 0.0463 OD (750 nm)

CC(C)C[C@H](NC(=O)[C@@H](N)CC(C)C)C(=O)O [Leu-Leu]
Effect on toxin production (in words) [1]: toxin production inhibitor | Toxin [1]: <0.122 ng/mL | C. difficile Mass [2, 11]: 0.0530 OD (750 nm)

CSCCC(NC(=O)C(N)CC(C)C)C(=O)O (stereo not drawn) [Leu-Met] (H-Leu-Met-OH; configuration not given here)
Effect on toxin production (in words) [1]: toxin production inhibitor | Toxin [1]: <0.122 ng/mL | C. difficile Mass [2, 11]: 0.0501 OD (750 nm)

CC(C)CC(N)C(=O)NC(Cc1ccccc1)C(=O)O (stereo not drawn) [Leu-Phe] (H-Leu-Phe-OH; configuration not given here)
Effect on toxin production (in words) [1]: toxin production inhibitor | Toxin [1]: <0.122 ng/mL | C. difficile Mass [2, 11]: 0.0538 OD (750 nm)

CCCCN [N-Butylamine]
Toxin [1]: 5679 ng/mL | C. difficile Mass [2, 11]: 0.0407 OD (750 nm)

O=NO [Nitrite]
Toxin [1]: 383 ng/mL | C. difficile Mass [2, 11]: 0.0333 OD (750 nm)

O=P(O)(O)OP(=O)(O)O [Pyrophosphate]
Toxin [1]: <0.122 ng/mL | C. difficile Mass [2, 12]: 0.0075 OD (750 nm)

OP(O)(O)=S [Thiophosphate]
Toxin [1]: <0.122 ng/mL | C. difficile Mass [2, 12]: 0.0373 OD (750 nm)

O=P1([O-])OP(=O)([O-])OP(=O)([O-])O1.[Na+].[Na+].[Na+] [Trimetaphosphate]
Toxin [1]: <0.122 ng/mL | C. difficile Mass [2, 12]: 0.0493 OD (750 nm)

NCCCCC(=O)O [δ-Amino-N-Valeric acid]
Toxin [1]: 435 ng/mL | C. difficile Mass [2, 11]: 0.0424 OD (750 nm)

NCCCCCC(=O)O [ε-Amino-N-Caproic acid]
Toxin [1]: 3389 ng/mL | C. difficile Mass [2, 11]: 0.0366 OD (750 nm)

Ala-Gly
Toxin [1]: 2130 ng/mL | C. difficile Mass ([2]; carbon source (PM01/PM02)): 0.0934 OD (750 nm)

Ala-Pro
Toxin [1]: <0.122 ng/mL | C. difficile Mass [2, 11]: 0.0507 OD (750 nm)

Arg-Ala
Toxin [1]: 10080 ng/mL | C. difficile Mass [2, 11]: 0.0456 OD (750 nm)

Arg-Arg
Toxin [1]: 8229 ng/mL | C. difficile Mass [2, 11]: 0.0435 OD (750 nm)

Arg-Asp
Toxin [1]: 10371 ng/mL | C. difficile Mass [2, 11]: 0.0444 OD (750 nm)

Arg-Gln
Toxin [1]: 8912 ng/mL | C. difficile Mass [2, 11]: 0.0476 OD (750 nm)

Arg-Glu
Toxin [1]: 4059 ng/mL | C. difficile Mass [2, 11]: 0.0404 OD (750 nm)

Arg-Phe
Toxin [1]: 6541 ng/mL | C. difficile Mass [2, 11]: 0.0467 OD (750 nm)

Arg-Ser
Toxin [1]: 7608 ng/mL | C. difficile Mass [2, 11]: 0.0448 OD (750 nm)

Arg-Trp
Toxin [1]: 8423 ng/mL | C. difficile Mass [2, 11]: 0.0499 OD (750 nm)

Arg-Tyr
Toxin [1]: 8819 ng/mL | C. difficile Mass [2, 11]: 0.0455 OD (750 nm)

Gly-Arg
Toxin [1]: 352 ng/mL | C. difficile Mass [2, 11]: 0.0403 OD (750 nm)

Gly-Asp
Toxin [1]: 1507 ng/mL | C. difficile Mass ([2]; carbon source (PM01/PM02)): 0.1004 OD (750 nm)

Gly-D-Asp
Toxin [1]: 1537 ng/mL | C. difficile Mass [2, 11]: 0.0467 OD (750 nm)

Gly-D-Ser
Toxin [1]: 297 ng/mL | C. difficile Mass [2, 11]: 0.0543 OD (750 nm)

Gly-D-Thr
Toxin [1]: 157 ng/mL | C. difficile Mass [2, 11]: 0.0549 OD (750 nm)

Gly-Glu
Toxin [1]: 366 ng/mL and 184 ng/mL | C. difficile Mass ([2]; carbon source (PM01/PM02)): 0.0411 OD (750 nm) | C. difficile Mass [2, 11]: 0.0472 OD (750 nm)

Gly-Gly-Gly
Toxin [1]: 1811 ng/mL | C. difficile Mass [2, 11]: 0.0456 OD (750 nm)

Gly-Gly-Ile
Toxin [1]: <0.122 ng/mL | C. difficile Mass [2, 11]: 0.0421 OD (750 nm)

Gly-Gly-Leu
Toxin [1]: 215 ng/mL | C. difficile Mass [2, 11]: 0.0305 OD (750 nm)

Gly-Phe-Phe
Toxin [1]: 298 ng/mL | C. difficile Mass [2, 11]: 0.2751 OD (750 nm)

Gly-Pro
Toxin [1]: 3798 ng/mL | C. difficile Mass [2, 11]: 0.0414 OD (750 nm)

Gly-Ser
Toxin [1]: <0.122 ng/mL | C. difficile Mass [2, 11]: 0.0471 OD (750 nm)

Gly-Trp
Toxin [1]: 3632 ng/mL | C. difficile Mass [2, 11]: 0.0431 OD (750 nm)

His-Leu
Toxin [1]: 376 ng/mL | C. difficile Mass [2, 11]: 0.0495 OD (750 nm)

His-Lys
Toxin [1]: 6993 ng/mL | C. difficile Mass [2, 11]: 0.0453 OD (750 nm)

His-Pro
Toxin [1]: 8568 ng/mL | C. difficile Mass [2, 11]: 0.0481 OD (750 nm)

His-Trp
Toxin [1]: 178 ng/mL | C. difficile Mass [2, 11]: 0.0442 OD (750 nm)

Ile-Arg
Toxin [1]: 122 ng/mL | C. difficile Mass [2, 11]: 0.0442 OD (750 nm)

Leu-Asn
Toxin [1]: 381 ng/mL | C. difficile Mass [2, 11]: 0.0482 OD (750 nm)

Leu-Ser
Toxin [1]: 116 ng/mL | C. difficile Mass [2, 11]: 0.037 OD (750 nm)

Leu-Trp
Effect on toxin production (in words) [1]: toxin production inhibitor | Toxin [1]: <0.122 ng/mL | C. difficile Mass [2, 11]: 0.0380 OD (750 nm)

Lys-Arg
Toxin [1]: 5536 ng/mL | C. difficile Mass [2, 11]: 0.0502 OD (750 nm)

Lys-Asp
Toxin [1]: 335 ng/mL | C. difficile Mass [2, 11]: 0.0525 OD (750 nm)

Lys-Glu
Toxin [1]: 271 ng/mL | C. difficile Mass [2, 11]: 0.0425 OD (750 nm)

Lys-Gly
Toxin [1]: 1950 ng/mL | C. difficile Mass [2, 11]: 0.047 OD (750 nm)

Lys-Lys
Toxin [1]: 150 ng/mL | C. difficile Mass [2, 11]: 0.0427 OD (750 nm)

Lys-Phe
Toxin [1]: <0.122 ng/mL | C. difficile Mass [2, 11]: 0.0533 OD (750 nm)

Lys-Ser
Toxin [1]: 5105 ng/mL | C. difficile Mass [2, 11]: 0.0426 OD (750 nm)

Lys-Trp
Toxin [1]: 5277 ng/mL | C. difficile Mass [2, 11]: 0.006 OD (750 nm)

Pro-Arg
Toxin [1]: 2967 ng/mL | C. difficile Mass [2, 11]: 0.0442 OD (750 nm)

Pro-Hyp
Toxin [1]: 7523 ng/mL | C. difficile Mass [2, 11]: 0.045 OD (750 nm)

Ser-Leu
Toxin [1]: 187 ng/mL | C. difficile Mass [2, 11]: 0.0404 OD (750 nm)

Ser-Pro
Toxin [1]: 7136 ng/mL | C. difficile Mass [2, 11]: 0.0472 OD (750 nm)

Thr-Gln
Toxin [1]: <0.122 ng/mL | C. difficile Mass [2, 11]: 0.0403 OD (750 nm)

Thr-Pro
Toxin [1]: 4772 ng/mL | C. difficile Mass [2, 11]: 0.0355 OD (750 nm)

Trp-Ala
Toxin [1]: 415 ng/mL | C. difficile Mass [2, 11]: 0.0489 OD (750 nm)

Trp-Arg
Toxin [1]: 6468 ng/mL | C. difficile Mass [2, 11]: 0.0628 OD (750 nm)

Trp-Trp
Toxin [1]: 4104 ng/mL | C. difficile Mass [2, 11]: 0.055 OD (750 nm)

Trp-Tyr
Toxin [1]: 134 ng/mL | C. difficile Mass [2, 11]: 0.0451 OD (750 nm)

Trp-Val
Toxin [1]: 184 ng/mL | C. difficile Mass [2, 11]: 0.0276 OD (750 nm)

Tyr-Ala
Toxin [1]: 186 ng/mL | C. difficile Mass [2, 11]: 0.0331 OD (750 nm)

Tyr-Phe
Toxin [1]: <0.122 ng/mL | C. difficile Mass [2, 11]: 0.0559 OD (750 nm)

Tyr-Tyr
Toxin [1]: 174 ng/mL | C. difficile Mass [2, 11]: 0.0415 OD (750 nm)

Val-Asp
Toxin [1]: 225 ng/mL | C. difficile Mass [2, 11]: 0.0469 OD (750 nm)

Val-Glu
Toxin [1]: 178 ng/mL | C. difficile Mass [2, 11]: 0.0481 OD (750 nm)

Val-Pro
Toxin [1]: 183 ng/mL | C. difficile Mass [2, 11]: 0.0425 OD (750 nm)

Val-Ser
Toxin [1]: <0.122 ng/mL | C. difficile Mass [2, 11]: 0.0455 OD (750 nm)

Val-Tyr-Val
Toxin [1]: 296 ng/mL | C. difficile Mass [2, 11]: 0.0382 OD (750 nm)

[dA]-Gly-Gly
Toxin [1]: 515 ng/mL | C. difficile Mass [2, 11]: 0.0538 OD (750 nm)

[βAla]-Gly
Toxin [1]: 1547 ng/mL | C. difficile Mass [2, 11]: 0.0389 OD (750 nm)

[βAla]-His
Toxin [1]: 8265 ng/mL | C. difficile Mass [2, 11]: 0.0473 OD (750 nm)

poly-D-lysine
Toxin B inactivation ([3]; 50 ng/ml C. difficile Toxin B): effectively inactivates

poly-D-lysine (peptide)
concentration at which significant toxin inactivation begins [4]: 1 µg/mL

poly-L-lysine
Toxin B inactivation ([3]; 50 ng/ml C. difficile Toxin B): effectively inactivates

poly-L-lysine (peptide)
concentration at which significant toxin inactivation begins [4]: 1 µg/mL

polyarginine
Reduction of measured toxin B [3]: dramatically reduce | Toxin B inactivation [3, 13]: completely inactivated

polylysine
Concentration at which significant toxin inactivation begins ([3]; 50 ng/ml C. difficile Toxin B, dose response 0.042-42.5 ug/ml): approximately 1 ug/ml

protamine
Reduction of measured toxin B [3]: dramatically reduce | Toxin B inactivation [3, 13]: completely inactivated | Optimal concentration against toxin B ([3]; double dilution experiment, FIG. 4): 0.26 µM | Toxin inactivation [5]: did not inactivate | Toxin inactivation [6]: did not inactivate | Toxin inactivation [7]: did not inactivate | Toxin inactivation [8]: did not inactivate | Toxin inactivation [9]: did not inactivate | Toxin inactivation [10]: did not inactivate

γ-D-Glu-Gly
Toxin [1]: 10122 ng/mL | C. difficile Mass [2, 11]: 0.0519 OD (750 nm)
